Like-named read-outs stand apart in the source and are kept apart here.
What was measured:
central 5-HT1A receptors = biological target: T1, central 5-HT1A receptors (Rattus norvegicus, UniProt P19327); experiment: 5-HT1A receptor binding ([3H]8-OH-DPAT displacement, rat hippocampal membranes); set-up: species or system male Sprague-Dawley rats
T1 construct: the brains were rapidly chilled and dissected to obtain the hippocampi; from tissue; host or cells: hippocampus of male Sprague-Dawley rats (washed membranes)
T1 sequence (P19327 1-422): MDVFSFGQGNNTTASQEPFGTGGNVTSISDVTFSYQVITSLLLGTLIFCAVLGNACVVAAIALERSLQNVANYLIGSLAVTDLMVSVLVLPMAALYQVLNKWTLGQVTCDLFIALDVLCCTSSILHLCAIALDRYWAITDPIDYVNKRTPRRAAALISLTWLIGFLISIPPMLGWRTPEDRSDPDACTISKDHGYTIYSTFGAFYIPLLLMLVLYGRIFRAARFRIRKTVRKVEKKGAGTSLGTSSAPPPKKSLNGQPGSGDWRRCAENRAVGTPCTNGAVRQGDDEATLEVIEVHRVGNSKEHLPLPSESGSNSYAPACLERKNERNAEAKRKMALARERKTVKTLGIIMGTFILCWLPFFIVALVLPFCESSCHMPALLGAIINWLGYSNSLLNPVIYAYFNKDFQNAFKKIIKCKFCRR
Experimental: The affinities of the compounds at the central 5-HT1A receptors were determined using a modification of the binding assay described by Taylor, et al., (J. Pharmacol. Exp. Ther. 236:118-125, 1986). Membranes for the binding assay were prepared from male Sprague-Dawley rats (150-250 g). The animals were killed by decapitation, and the brains were rapidly chilled and dissected to obtain the hippocampi. The hippocampi were either prepared that day or stored frozen (-70° C.) until the day of preparation. Membranes were prepared by homogenizing the tissue in 40 volumes of ice-cold Tris-HCl buffer (50 mM, pH 7.4 at 22° C.) using a Techmar Tissumizer (setting 65 for 15 sec), and the homogenate was centrifuged at 39800×g for 10 min. The resulting pellet was then resuspended in the same buffer, and the centrifugation and resuspension process was repeated three additional times to wash the membranes. Between the second and third washes the resuspended membranes were incubated for 10 min at 37° C. to facilitate the removal of endogenous ligands. The final pellet was resuspended in 67 mM Tris-HCl, pH 7.4, to a concentration of 2 mg of tissue original wet weight/200 μl. This homogenate was stored frozen (-70° C.) until the day of the binding assay. […] The assay tubes were incubated for 10 min at 37° C., and the contents were then rapidly filtered through GF/B filters (pretreated with 0.5% polyethylenimine), followed by four one-mL washes with ice cold buffer. The radioactivity trapped by the filters was quantitated by liquid scintillation spectrometry, and specific [^3 H]8-OH-DPAT binding to the 5-HT1A sites was defined as the difference between [^3 H]8-OH-DPAT bound in the presence and absence of 10 μM 5-HT.
The affinity of the particular compound at the 5-HT1A receptor is expressed as IC50 value, i.e., the concentration required to inhibit 50% of the binding. The IC50 values were determined from 12-point competition curves using nonlinear regression (SYSTAT, SYSTAT, INC., Evanston, Ill.).

[1] = biological target: T2, central 5-HT1D binding sites (Bos taurus, UniProt F1MGM3); experiment: 5-HT1D binding ([3H]5-HT displacement, bovine caudate nuclei membranes)
T2 construct: Bovine brains were obtained from Pel-Freeze Biologicals, and the caudate nuclei were dissected out; tissue Pel-Freeze Biologicals; host or cells: bovine caudate nuclei (washed membranes)
Experimental: The affinities of the compounds at the central 5-HT1D binding sites were determined using a modification of the binding assay described by Heuring and Peroutka (J. Neurosci. 7:894-903, 1987). Bovine brains were obtained from Pel-Freeze Biologicals, and the caudate nuclei were dissected out and frozen at -70° C. until the time that the membranes were prepared for the binding assays. At that time the tissues were homogenized in 40 volumes of ice-cold Tris-HCl buffer (50 mM, pH 7.4 at 22° C.) with a Techmar Tissumizer (setting 65 for 15 sec), and the homogenate was centrifuged at 39,800 g for 10 min. The resulting pellet was then resuspended in the same buffer, and the centrifugation and resuspension process was repeated three additional times to wash the membranes. Between the second and third washes the resuspended membranes were incubated for 10 min at 37° C. to facilitate the removal of endogenous 5-HT. The final pellet was resuspended in Tris buffer to a concentration of 25 mg of original tissue wet weight/ml for use in the binding assay. […] The assay tubes were incubated for 10 min at 37° C., and the contents were then rapidly filtered through GF/B filters (pretreated with 0.5% polyethylenimine), followed by four one-mL washes with ice-cold buffer. The radioactivity trapped by the filters was quantitated by liquid scintillation spectrometry, and specific [^3 H]5-HT binding to the 5-HT1D sites was defined as the difference between [^3 H]5-HT bound in the presence and absence of 10 μM 5-HT.
The affinities of compounds at the 5-HT1D receptor are expressed as IC50 values, i.e., the concentration required to inhibit 50% of the binding. These values were determined from 12-point competition curves using nonlinear regression (SYSTAT, SYSTAT, Inc., Evanston, Ill.).

Brain 5-hydroxyindoles = experiment: brain 5-hydroxyindoles in vivo after subcutaneous injection; set-up: species or system male albino rats; conditions: 1 hour, * = P<0.05 vs control
Experimental: (§1) Certain compounds were evaluated to determine their ability to affect the 5-hydroxyindoles serotonin, 5-hydroxyindole acetic acid (5HIAA) and serum corticosterone, in vivo, using the following procedures.
(§2) Compounds in aqueous solution were injected subcutaneously into male albino rats. Rats were decapitated one hour later. Trunk blood was collected and allowed to clot; after centrifugation, serum was stored frozen prior to analysis. Whole brain was removed and frozen on dry ice, then stored frozen prior to analysis. Serum corticosterone concentration was measured spectrofluorometrically (J. H. Solem and T. Brinch-Johnsen, "An evaluation of a method for determination of free corticosteroids in minute quantities of mouse plasma," Scand. J. Clin. Lab. Invest. (Suppl. 80), 1.14 (1965).) 5-Hydroxyindoleacetic acid (5HIAA) concentration in whole brain was measured by liquid chromatography with electrochemical detection. (Ray W. Fuller and Kenneth W. Perry, "Effects of buspirone and its metabolite, 1-(2-pyrimidinyl)piperazine, on brain monoamines and their metabolites in rats", J. Pharmacol. Exp. Ther. 248, 50-56 (1989).) The results are provided in Table III.

serum corticosterone = serum corticosterone in vivo after subcutaneous injection; set-up: species or system male albino rats; conditions: 1 hour, * = P<0.05 vs control
Experimental: as §1, §2

[2] = [3H]8-OH-DPAT 1.0 nM, rat hippocampi, pH 7.4, 37° C., 10 min, read-out: 5HT1A IC50 (concentration required to inhibit 50% of the binding)
[3] = [3H]5-HT 1.7-1.9 nM, bovine caudate, 8-OH-DPTA and mesulergine 100 nM as masks, pH 7.4, 37° C., 10 min, read-out: 5HT1D IC50 (concentration required to inhibit 50% of the binding)

T2 sequence (F1MGM3 1-403): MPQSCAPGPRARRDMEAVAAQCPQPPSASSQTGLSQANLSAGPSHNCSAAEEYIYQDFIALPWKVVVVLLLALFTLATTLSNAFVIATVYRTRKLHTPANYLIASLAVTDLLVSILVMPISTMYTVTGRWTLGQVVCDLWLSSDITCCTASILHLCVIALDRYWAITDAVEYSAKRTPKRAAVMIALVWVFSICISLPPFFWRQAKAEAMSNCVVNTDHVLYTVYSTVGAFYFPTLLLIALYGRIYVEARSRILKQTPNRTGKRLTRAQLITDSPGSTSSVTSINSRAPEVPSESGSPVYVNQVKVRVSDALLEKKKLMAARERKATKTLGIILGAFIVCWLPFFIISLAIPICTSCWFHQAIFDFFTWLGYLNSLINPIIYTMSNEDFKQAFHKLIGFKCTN

Row | SMILES | IC50 (central 5-HT1A receptors) [nM] | IC50 [1] [nM] | IC50 (central 5-HT1A receptors; [2]) [nM] | Brain 5-HIAA (Brain 5-hydroxyindoles; 0.003 mg/Kg s.c.) [n moles/g] | Brain serotonin (Brain 5-hydroxyindoles; 0.003 mg/Kg s.c.) [n moles/g] | Brain 5-HIAA (Brain 5-hydroxyindoles; 0.03 mg/Kg s.c.) [n moles/g] | Brain serotonin (Brain 5-hydroxyindoles; 0.03 mg/Kg s.c.) [n moles/g] | Brain 5-HIAA (Brain 5-hydroxyindoles; 0.3 mg/Kg s.c.) [n moles/g] | Brain serotonin (Brain 5-hydroxyindoles; 0.3 mg/Kg s.c.) [n moles/g] | IC50 [1, 3] [nM] | Serum Corticosterone (serum corticosterone; 0.003 mg/Kg s.c.) [μg/100 ml] | Serum Corticosterone (serum corticosterone; 0.03 mg/Kg s.c.) [μg/100 ml] | Serum Corticosterone (serum corticosterone; 0.3 mg/Kg s.c.) [μg/100 ml]
1 | CCCN(CCC)[C@H]1Cc2c(C(C)=O)ccc3c2[C@@H](CN3)C1 (relative stereo) [Example 3, 6-acetyl-4-(di-n-propylamino)-1,2,2a,3,4,5-hexahydrobenz[cd]indole] | 0.63 | 7.47 |  |  |  |  |  |  |  |  |  |  | 
2 | CCCN(CCC)C1Cc2c(C(=O)C(C)C)ccc3c2C(CN3)C1 (single isomer, unassigned; (-)) [Example 9, (-)-6-(2-methylpropanoyl)-4-(di-n-propylamino)-1,2,2a,3,4,5-hexahydrobenz[cd]indole] |  |  | 54.9 | 1.68 ± 0.10 | 1.83 ± 0.08 | 1.91 ± 0.06 | 1.90 ± 0.10 | 1.74 ± 0.04 | 1.69 ± 0.06 | 3130 | 4.1 ± 0.5 | 6.0 ± 1.6 | 6.7 ± 2.0
3 | CCCN(CCC)[C@H]1Cc2c(C(C)=O)ccc3c2[C@H](CN3)C1 [Example 4, (2aR,4R)-6-acetyl-4-(di-n-propylamino)-1,2,2a,3,4,5-hexahydrobenz[cd]indole] |  |  | 0.8 |  |  |  |  |  |  | 236 |  |  | 
4 | CCCN(CCC)[C@@H]1Cc2c(C(C)=O)ccc3c2[C@@H](CN3)C1 [Example 5, (2aS,4S)-6-acetyl-4-(di-n-propylamino)-1,2,2a,3,4,5-hexahydrobenz[cd]indole] |  |  | 0.31 |  |  |  |  |  |  | 129 |  |  | 
5 | CCCN(CCC)[C@H]1Cc2c(C(C)=O)ccc3c2[C@@H](CN3)C1 [Example 6, (+)-(2aS,4R)-6-acetyl-4-(di-n-propylamino)-1,2,2a,3,4,5-hexahydrobenz[cd]indole] |  |  | 0.3 | 1.81 ± 0.14 | 2.46 ± 0.14 | 1.58 ± 0.08 | 2.99 ± 0.06 | 1.41 ± 0.03 | 3.08 ± 0.04 | 6.25 | 5.8 ± 1.0 | 10.6 ± 2.0 | 42.2 ± 1.1
6 | CCCN(CCC)[C@@H]1Cc2c(C(C)=O)ccc3c2[C@H](CN3)C1 [Example 7, (-) (2aR,4S)-6-acetyl-4-(di-n-propylamino)-1,2,2a,3,4,5-hexahydrobenz[cd]indole] |  |  | 6.61 | 2.06 ± 0.13 | 2.75 ± 0.05 | 1.87 ± 0.07 | 2.57 ± 0.10 | 1.77 ± 0.17 | 2.85 ± 0.08 | 8500 | 3.8 ± 0.5 | 6.5 ± 2.6 | 8.4 ± 4.0
7 | CCCN(CCC)[C@H]1Cc2c(C(=O)C(C)C)ccc3c2[C@@H](CN3)C1 [Example 8, (+)-(2aS,4R)-6-(2-methylpropanoyl)-4-(di-n-propylamino)-1,2,2a,3,4,5-hexahydrobenz[cd]indole] |  |  | 0.25 | 1.56 ± 0.10 | 1.88 ± 0.05 | 1.34 ± 0.06 | 2.26 ± 0.06 | 1.30 ± 0.07 | 2.26 ± 0.16 | 1.24 | 3.6 ± 0.7 | 27.1 ± 6.4 | 42.0 ± 0.4
8 | CCCN(CCC)[C@@H]1Cc2c(C(=O)CC)ccc3c2[C@H](CN3)C1 [Example 10, (-)-(2aR,4S)-6-(propanoyl)-4-(di-n-propylamino)-1,2,2a,3,4,5-hexahydrobenz[cd]indole] |  |  | 9.47 |  |  |  |  |  |  | 9000 |  |  | 
9 | CCCN(CCC)[C@H]1Cc2c(C(=O)c3ccccc3)ccc3c2[C@@H](CN3)C1 [Example 12, (+)-(2aS,4R)-6-(benzoyl)-4-(di-n-propylamine)-1,2,2a,3,4,5-hexahydrobenz[cd]indole] |  |  | 0.34 |  |  |  |  |  |  | 1.78 |  |  | 
10 | CCCN(CCC)[C@H]1Cc2c(C(=O)Cc3ccccc3)ccc3c2[C@@H](CN3)C1 [Example 13, (+)-(2aS,4R)-6-(2-phenylethanoyl)-4-(di-n-propylamino)-1,2,2a,3,4,5-hexahydrobenz[cd]indole] |  |  | 0.98 |  |  |  |  |  |  | 2.7 |  |  | 
